Test results: patent US9269550B2, “Mass spectrometric methods for quantifying NPY 1-36 and NPY 3-36” (Georgetown University, priority 2010, dated 2016)

Columns and labels:
SK-N-MC cells = test: Cell viability in SK-N-MC cells; assay type: cell-based, human
Y1Rs = biological target: T1, Y1Rs (Homo sapiens, UniProt P25929); conditions: cited from earlier work
T1 sequence (P25929 1-384): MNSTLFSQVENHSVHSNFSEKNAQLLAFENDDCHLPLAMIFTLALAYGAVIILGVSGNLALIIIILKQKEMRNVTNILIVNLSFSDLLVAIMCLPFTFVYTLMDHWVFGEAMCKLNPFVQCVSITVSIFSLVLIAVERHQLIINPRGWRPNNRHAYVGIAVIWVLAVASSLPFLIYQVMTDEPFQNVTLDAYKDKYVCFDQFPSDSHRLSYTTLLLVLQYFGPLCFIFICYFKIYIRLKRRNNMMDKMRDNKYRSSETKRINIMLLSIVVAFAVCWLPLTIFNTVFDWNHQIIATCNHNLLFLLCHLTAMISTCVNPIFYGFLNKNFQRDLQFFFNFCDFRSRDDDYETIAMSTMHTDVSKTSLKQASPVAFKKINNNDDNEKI

NPY 1-36: 36-amino acid peptide neurotransmitter found in the brain and autonomic nervous system
decrease in cell viability (SK-N-MC cells): decrease in cell viability was achieved

NPY 3-36: 34-amino acid peptide fragment formed by dipeptidyl peptidase IV (DPPIV) cleavage of NPY 1-36
decrease in cell viability (SK-N-MC cells): not
activity at Y1Rs (Y1Rs): inactive
